Consider 7 compounds from paper PMC2610245 (Drug metabolism and disposition: the biological fate of …, 2008).

For data set [1] the following is noted: ref Kumar et al., 2002; Mano et al., 2007; cited from earlier work.
In data set [2] the test system is P450 2C9. To be noted: in humans; ref Obach et al., 2007; cited from earlier work.
In data set [3] the target is P450 2C9 Baculosomes (Homo sapiens, UniProt P11712). The experiment in a line: Partition ratio by titration method. To be noted: 30 min pre-incubation, (S)-flurbiprofen as probe substrate.
Chain of P450 2C9 Baculosomes (P11712 whole entry): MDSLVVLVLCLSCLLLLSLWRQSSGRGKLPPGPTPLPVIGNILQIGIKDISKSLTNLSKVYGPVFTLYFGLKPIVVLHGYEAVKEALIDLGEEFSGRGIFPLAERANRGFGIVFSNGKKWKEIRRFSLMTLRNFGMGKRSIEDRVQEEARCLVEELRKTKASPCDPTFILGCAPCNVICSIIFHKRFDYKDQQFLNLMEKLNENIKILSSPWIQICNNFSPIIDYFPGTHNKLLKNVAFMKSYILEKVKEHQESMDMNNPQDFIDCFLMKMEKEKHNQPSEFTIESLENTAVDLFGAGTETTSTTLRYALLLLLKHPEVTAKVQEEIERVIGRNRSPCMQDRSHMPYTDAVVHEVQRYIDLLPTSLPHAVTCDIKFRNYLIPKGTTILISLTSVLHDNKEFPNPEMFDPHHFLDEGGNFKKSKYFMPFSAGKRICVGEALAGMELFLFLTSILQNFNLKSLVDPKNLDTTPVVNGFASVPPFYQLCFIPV
Data set [4] has as its target T1, P450 2C9 (Homo sapiens, UniProt P11712). The experiment in a line: Metabolic stability by substrate depletion. To be noted: 1 μM substrate, 0.04 μM P450 2C9, NADPH 2 mM, 37°C.
Data set [5] has as its target T1, P450 2C9. In words: P450 2C9 inactivation assay. To be noted: Hill equation.
Data set [6] concerns the target T1, P450 2C9. The experiment in a line: in vitro. To be noted: recombinant enzyme, pH 7.4, in vitro half-life (t1/2).

Usually half-life stands for the time needed for the level to fall by half in the phase considered.

T1 sequence (P11712 whole entry): as above

Consider `C[C@H](C(=O)O)c1ccc(-c2ccccc2)c(F)c1` [(S)-flurbiprofen], for which the “cleared by direct glucuronidation of the carboxylate functional groups” value in data set [1] is “roughly 50%”.

For the compound `CC(=O)C[C@@H](c1ccccc1)c1c(O)c2ccccc2oc1=O` [(S)-warfarin], the “fraction metabolized through P450 2C9 (fm2C9)” value in data set [2] is 0.91.

On to `O=C(O)Cc1ccccc1Nc1c(Cl)cccc1Cl` [diclofenac], for which the “cleared by direct glucuronidation of the carboxylate functional groups” value in data set [1] is reported as “roughly 50%”.

Regarding `CC(C(=O)O)c1ccc(C(=O)c2cccs2)cc1` (racemic) [(±)-Suprofen, (±)-suprofen], in data set [3], the partition ratio was determined as 98 and the “turnover number (partition ratio + 1)” value came to 99. Moreover, in data set [4], the “in vitro half-life (t1/2)” value is 50 min. In data set [5] (probe substrate (S)-flurbiprofen), the “n (Hill coefficient)” value was 1.4. Besides, in data set [5] (probe substrate diclofenac), the “n (Hill coefficient)” value is 1.3.

`O=C(O)COc1ccc(C(=O)c2cccs2)c(Cl)c1Cl` [Tienilic Acid, Tienilic acid]: the half-life at 1 μM in data set [6] was 5 min.

As to `C[C@H](C(=O)O)c1ccc(C(=O)c2cccs2)cc1` [(S)-suprofen], the half-life at 1 μM in data set [6] lay within 35 to 38 min.

Consider `C[C@@H](C(=O)O)c1ccc(C(=O)c2cccs2)cc1` [(R)-suprofen], for which the half-life at 1 μM in data set [6] lay within 35 to 38 min.
